Earlier results as cited in patent publication US20250049677A1, “Oxa-Macrocyclic Musk as Fragrance Compounds” (Symrise AG, priority 2021, published 2025).

Key:
[1] = background statement on prior art
[2] = background statement on prior art; remark: listed apart in the source

**Q.** For `C[C@@H]1CCCCCCCCCCCCC(=O)C1` [Muscone, (R)-3-methylcyclopentadecanone], which Biodegradability [1] is on record?
**A.** badly biodegradable

**Q.** And the Solubility in water [2]?
**A.** only very slightly soluble in water
